Measurements reported in patent publication US5574070A, “Substituted guanidines having high binding to the sigma receptor and the use thereof” (priority 1993, dated 1996).
Like-named read-outs stand apart in the source and are kept apart here.

Tests used:
rhesus monkeys = conditions: introduction of foreign objects into cages; cited from earlier work
rats = conditions: rat, in vivo; cited from earlier work
[1] = tested on: D1 subclass of dopamine receptors; conditions: cited from earlier work
[2] = tested on: D2 class of striatal dopamine receptors; conditions: cited from earlier work
sigma receptor [3] = conditions: cited from earlier work
[4] = tested on: dopamine-stimulated cAMP production; conditions: in vitro; cited from earlier work
[5] = tested on: adrenergic, muscarinic, cholinergic, or histaminergic sites; conditions: cited from earlier work
sigma receptor [6] = assay: [3H]DTG displacement radioligand binding assay, guinea pig brain membranes
[7] = tested on: mu, delta and kappa receptors; conditions: cited from earlier work
anxiety = conditions: in vivo; cited from earlier work
dopamine synthesis = conditions: cited from earlier work
[8] = tested on: apomorphine-induced mesolimbic behaviors; conditions: without altering the intensity of stereotypic behaviors; cited from earlier work
[9] = tested on: dopamine-stimulated production of cAMP; conditions: homogenates of rat striatum and olfactory tubercle; cited from earlier work

O=C1CC2(CCCC2)CC(=O)N1CCCCN1CCN(c2ncccn2)CC1 [Buspirone]
taming of the aggressive response (rhesus monkeys): efficacy in a predictive animal model

OC(CCCN1CCN(c2ncc(F)cn2)CC1)c1ccc(F)cc1 (stereo not shown) [BMY 14802]
catalepsy (rats): did not cause catalepsy in rats | interaction with D1 subclass / inhibition of [3H]SCH 23390 binding in vitro [1]: does not appear to interact with the D1 subclass of dopamine receptors | maximal density of [3H]spiperone-labeled D2 site ([2]; chronic administration (20 days) to rats): did not increase the maximal density | inhibition of [3H]spiperone binding to D2 [2]: does not inhibit the binding of [^3 H]spiperone | binding to the sigma receptor (sigma receptor [3]): binds with relatively high affinity to the sigma receptor | potency of dextrorotatory vs levorotatory enantiomer at inhibiting sigma binding (sigma receptor [3]): 10 times | inhibition of dopamine-stimulated cAMP production [4]: does not inhibit dopamine-stimulated cAMP production | binding to adrenergic, muscarinic, cholinergic, or histaminergic sites [5]: does not bind to the adrenergic, muscarinic, cholinergic, or histaminergic sites

C=CCN1CCC2(C)c3cc(O)ccc3CC1C2C (single isomer, unassigned; (-)) [(-)SKF 10,047, N-allyl-normetazocine, reference compound]
IC50 (sigma receptor [6]; read-out: IC50 binding values): 4 ± 0.566 µM | IC50 (sigma receptor [6]; read-out: IC50 vs. [3H]DTG): 4 µM | binding to delta, mu and kappa receptors [7]: apparently labeled the mu and kappa receptors but not the sigma receptors

C[C@@H]1CN(CCCn2c3ccccc3c3ccccc32)C[C@H](C)N1.Cl.Cl [rimcazole, cis-9-[3-(3,5-dimethyl-1-piperazinyl)propyl]carbazole dihydrochloride]
anxiolytic activity (anxiety): determined to have anxiolytic activity | effect on rate of dopamine synthesis (dopamine synthesis): does not accelerate the rate of dopamine synthesis | antagonism of apomorphine-induced mesolimbic behaviors [8]: ability to antagonize apomorphine-induced mesolimbic behaviors selectively | effect on dopamine-stimulated cAMP [9]: does not affect dopamine-stimulated production of cAMP
